In patent US9085555B2, “Complement pathway modulators and uses thereof” (priority 2011, dated 2015):
Counter-ions that a name gives are not always drawn. Like-named read-outs stand apart in the source and are kept apart here.

Target: Factor D (Homo sapiens (Human), UniProt P00746)
Test: biochemical
Format: biochemical

Chain of Factor D (P00746 26-253): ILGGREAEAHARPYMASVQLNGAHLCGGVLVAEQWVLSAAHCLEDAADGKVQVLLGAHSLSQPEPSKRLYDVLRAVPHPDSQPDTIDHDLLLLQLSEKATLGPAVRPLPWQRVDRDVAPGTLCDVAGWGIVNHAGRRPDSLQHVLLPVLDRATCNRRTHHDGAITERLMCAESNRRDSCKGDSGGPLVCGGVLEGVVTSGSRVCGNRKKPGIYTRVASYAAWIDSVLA

Compound	IC50 (read-out: IC50)	IC50
CC(=O)c1nn(CC(=O)N2C[C@@H]3C[C@@H]3[C@H]2C(=O)NCc2cccc(Cl)c2F)c2cnc(C)cc12 [Example 625, (1S,2S,5R)-3-[2-(3-Acetyl-5-methyl-pyrazolo[3,4-c]pyridin-1-yl)-acetyl]-3-aza-bicyclo [3.1.0]hexane-2-carboxylic acid 3-chloro-2-fluoro-benzylamide]	19 nM	–
NC(=O)n1cc(NC(=O)N2C[C@H](F)C[C@H]2C(=O)NCc2cc(C(=O)N3CCOCC3)cc(Cl)c2F)c2ccccc21 [Example 250, (2S,4R)-4-Fluoro-pyrrolidine-1,2-dicarboxylic acid 1-[(1-carbamoyl-1H-indol-3-yl)-amide] 2-[3-chloro-2-fluoro-5-(morpholine-4-carbonyl)-benzylamide]]	549 nM	–
CC(=O)c1cn(CC(=O)N2C[C@H](F)[C@@H](OCCN(C)C)[C@H]2C(=O)NCc2cccc(Cl)c2F)c2ccccc12 [Example 634, (2S,3S,4S)-1-[2-(3-Acetyl-indol-1-yl)-acetyl]-3-(2-dimethylamino-ethoxy)-4-fluoro-pyrrolidine-2-carboxylic acid 3-chloro-2-fluoro-benzylamide formate]	53 nM	–
NC(=O)n1cc(NC(=O)N2C[C@H](F)C[C@H]2C(=O)NC2CCOc3ccc(Cl)cc32)c2ccccc21 (mixture of isomers) [Example 326, (2S,4R)-4-Fluoro-pyrrolidine-1,2-dicarboxylic acid 1-[(1-carbamoyl-1H-indol-3-yl)-amide] 2-[(6-chloro-chroman-4-yl)-amide] (mixture of 2 diastereomers)]	7150 nM	–
NC(=O)c1nn(CC(=O)N2[C@@H]3C[C@@H]3C[C@H]2C(=O)NCc2cccc(Cl)c2F)c2ncccc12 [Example 654, 1-{2-[(1R,3S,5R)-3-(3-Chloro-2-fluoro-benzylcarbamoyl)-2-aza-bicyclo[3.1.0]hex-2-yl]-2-oxo-ethyl}-1H-pyrazolo[3,4-b]pyridine-3-carboxylic acid amide]	18 nM	–
NC(=O)n1cc(NC(=O)N2C[C@@H](N)C[C@H]2C(=O)NCc2cc(Cl)ccc2F)c2ccccc21 [Example 55, (2S,4S)-4-Amino-pyrrolidine-1,2-dicarboxylic acid 1-[(1-carbamoyl-1H-indol-3-yl)-amide] 2-(5-chloro-2-fluoro-benzylamide)]	125 nM	–
C[C@@]1(F)C[C@@H](C(=O)NCc2cccc(Cl)c2F)N(C(=O)Cn2cc(C(N)=O)c3ccccc32)C1 [Example 496, 1-{2-[(2S,4R)-2-(3-Chloro-2-fluoro-benzylcarbamoyl)-4-fluoro-4-methyl-pyrrolidin-1-yl]-2-oxo-ethyl}-1H-indole-3-carboxylic acid amide]	176 nM	–
(2S,4S)-4-Amino-pyrrolidine-1,2-dicarboxylic acid 1-[(1-carbamoyl-1H-indol-3-yl)-amide] 2-[(2-phenoxy-ethyl)-amide] [Example 91]	2950 nM	–
NC(=O)c1cn(CC(=O)N2C[C@H](F)C[C@H]2C(=O)NCc2cccc(Cl)c2F)c2ccc(O)cc12 [Example 577, 1-{2-[(2S,4R)-2-(3-Chloro-2-fluoro-benzylcarbamoyl)-4-fluoro-pyrrolidin-1-yl]-2-oxo-ethyl}-5-hydroxy-1H-indole-3-carboxylic acid amide]	71 nM	–
COc1ccc(CNC(=O)[C@@H]2SCCN2C(=O)Nc2cn(C(N)=O)c3ccccc23)c(F)c1F [Example 225, (S)-Thiazolidine-2,3-dicarboxylic acid 3-[(1-carbamoyl-1H-indol-3-yl)-amide] 2-(2,3-difluoro-4-methoxy-benzylamide)]	350 nM	–
COCCN[C@H]1C[C@@H](C(=O)NCc2cccc(Cl)c2F)N(C(=O)Cn2cc(C(C)=O)c3ccccc32)C1 [Example 609, (2S,4S)-1-[2-(3-Acetyl-indol-1-yl)-acetyl]-4-(2-methoxy-ethylamino)-pyrrolidine-2-carboxylic acid 3-chloro-2-fluoro-benzylamide]	1560 nM	–
COc1ccc2c(c1)c(NC(=O)N1C[C@H](F)C[C@H]1C(=O)Nc1cccc(OC(F)(F)F)c1F)cn2C(N)=O [Example 298, (2S,4R)-4-Fluoro-pyrrolidine-1,2-dicarboxylic acid 1-[(1-carbamoyl-5-methoxy-1H-indol-3-yl)-amide] 2-[(2-fluoro-3-trifluoromethoxy-phenyl)-amide]]	7 nM	–
NC(=O)n1cc(NC(=O)N2N=CCC2C(=O)NCc2cccc(Cl)c2F)c2ccccc21 (racemic) [Example 201, 4,5-Dihydro-pyrazole-1,5-dicarboxylic acid 1-[(1-carbamoyl-1H-indol-3-yl)-amide] 5-(3-chloro-2-fluoro-benzylamide)]	20 nM	–
NC(=O)n1cc(NC(=O)N2[C@@H]3C[C@@H]3C[C@H]2C(=O)NCc2cccc(Cl)c2F)c2cc(O)ccc21 [Example 371, (1R,3S,5R)-2-aza-bicyclo[3.1.0]hexane-2,3-dicarboxylic acid 2-[(1-carbamoyl-5-hydroxy-1H-indol-3-yl)-amide]3-(3-chloro-2-fluoro-benzylamide)]	3 nM	–
C[C@H]1CCN(C(=O)Nc2cn(C(N)=O)c3ccccc23)[C@@H]1C(=O)Nc1cccc(OC(F)(F)F)c1 [Example 227, (2S,3S)-3-Methyl-pyrrolidine-1,2-dicarboxylic acid 1-[(1-carbamoyl-1H-indol-3-yl)-amide] 2-[(3-trifluoromethoxy-phenyl)-amide]]	800 nM	–
COC[C@@H](NC(=O)[C@@H]1C[C@H]2C[C@H]2N1C(=O)Cc1nc(C(C)=O)c2ccccn12)c1cccc(Cl)c1F [Example 678, (1R,3S,5R)-2-[2-(1-Acetyl-imidazo[1,5-a]pyridin-3-yl)-acetyl]-2-aza-bicyclo [3.1.0]hexane-3-carboxylic acid [(S)-1-(3-chloro-2-fluoro-phenyl)-2-methoxy-ethyl]-amide]	40 nM	–
CNC(=O)n1cc(NC(=O)N2CCC[C@H]2C(=O)Nc2cccc(OC(F)(F)F)c2)c2ccccc21 [Example 282, (S)-Pyrrolidine-1,2-dicarboxylic acid 1-[(1-methylcarbamoyl-1H-indol-3-yl)-amide] 2-[(3-trifluoromethoxy-phenyl)-amide]]	3680 nM	–
NC(=O)n1cc(CC(=O)N2[C@@H]3C[C@@H]3C[C@H]2C(=O)N[C@H](CCO)c2cccc(Cl)c2F)c2ccccc21 [Example 457, 3-(2-{(1R,3S,5R)-3-[(R)-1-(3-Chloro-2-fluoro-phenyl)-3-hydroxy-propylcarbamoyl]-2-azabicyclo[3.1.0]hex-2-yl}-2-oxo-ethyl)-indole-1-carboxylic acid amide]	107 nM	–
CC(=O)c1cn(CC(=O)N2C[C@H](F)C[C@H]2C(=O)NCc2cccc(Cl)c2F)c2ccc(O)cc12 [Example 579, (2S,4R)-1-[2-(3-Acetyl-5-hydroxy-indol-1-yl)-acetyl]-4-fluoro-pyrrolidine-2-carboxylic acid 3-chloro-2-fluoro-benzylamide]	39 nM	–
NC(=O)n1cc(NC(=O)N2C[C@H](F)C[C@H]2C(=O)NCc2ccccc2)c2ccccc21 [Example 2, (2S,4R)-4-Fluoro-pyrrolidine-1,2-dicarboxylic acid 2-benzylamide 1-[(1-carbamoyl-1H-indol-3-yl)-amide]]	25 nM	–
NC(=O)n1cc(NC(=O)N2CCNC[C@H]2C(=O)NCc2cccc(Cl)c2)c2ccccc21 [Example 399, S)-piperazine-1,2-dicarboxylic acid 1-[(1-carbamoyl-1H-indol-3-yl)-amide]2-(3-chloro-benzylamide]	1600 nM	–
CO[C@H]1[C@@H](C(=O)NCc2cccc(Cl)c2F)N(C(=O)Cn2cc(C(C)=O)c3ccccc32)C[C@@H]1F [Example 505, (2S,3S,4S)-1-[2-(3-Acetyl-indol-1-yl)-acetyl]-4-fluoro-3-methoxy-pyrrolidine-2-carboxylic acid 3-chloro-2-fluoro-benzylamide]	–	14 nM
CCO[C@H]1[C@@H](C(=O)NCc2cccc(Cl)c2F)N(C(=O)Cn2cc(C(C)=O)c3cc(C)ncc32)C[C@@H]1F [Example 667, (2S,3S,4S)-1-[2-(3-Acetyl-5-methyl-pyrrolo[2,3-c]pyridin-1-yl)-acetyl]-3-ethoxy-4-fluoro-pyrrolidine-2-carboxylic acid 3-chloro-2-fluoro-benzylamide formate]	16 nM	–
COc1ccc2c(c1)c(C(C)=O)cn2CC(=O)N1C[C@H](F)[C@@H](OC)[C@H]1C(=O)NCc1cccc(Cl)c1F [Example 485, (2S,3S,4S)-1-[2-(3-Acetyl-5-methoxy-indol-1-yl)-acetyl]-4-fluoro-3-methoxy-pyrrolidine-2-carboxylic acid 3-chloro-2-fluoro-benzylamide]	15 nM	–
CC(=O)c1cn(CC(=O)N2C[C@H](F)C[C@H]2C(=O)Nc2cccc(OC(F)(F)F)c2F)c2ccccc12 [Example 514, (2S,4R)-1-[2-(3-Actyl-indol-1-yl)-acetyl]-4-fluoro-pyrrolidine-2-carboxylic acid (2-fluoro-3-trifluoromethoxy-phenyl)-amide]	95 nM	–
NC(=O)n1cc(NC(=O)N2C[C@@H](N)C[C@H]2C(=O)NCCc2cc(F)cc(Cl)c2)c2ccccc21 [Example 90, (2S,4S)-4-Amino-pyrrolidine-1,2-dicarboxylic acid 1-[(1-carbamoyl-1H-indol-3-yl)-amide] 2-{[2-(3-chloro-5-fluoro-phenyl)-ethyl]-amide}]	1150 nM	–
NC(=O)n1cc(NC(=O)N2[C@@H]3C[C@@H]3C[C@H]2C(=O)NCc2cccc(F)c2F)c2ccccc21 [Example 195, (1R,3S,5R)-2-Aza-bicyclo[3.1.0]hexane-2,3-dicarboxylic acid 2-[(1-carbamoyl-1H-indol-3-yl)-amide] 3-(2,3-difluoro-benzylamide)]	14 nM	–
Cn1nc(C(C)(C)C)cc1NC(=O)[C@@H]1CCCN1C(=O)Nc1cn(C(N)=O)c2ccccc12 [Example 279, (S)-Pyrrolidine-1,2-dicarboxylic acid 2-[(5-tert-butyl-2-methyl-2H-pyrazol-3-yl)-amide] 1-[(1-carbamoyl-1H-indol-3-yl)-amide]]	2900 nM	–
CC(=O)c1cn(CC(=O)N2C[C@@](F)(CN)C[C@H]2C(=O)NCc2cccc(Cl)c2F)c2ccccc12 [Example 607, (2S,4S)-1-[2-(3-Acetyl-indol-1-yl)-acetyl]-4-aminomethyl-4-fluoro-pyrrolidine-2-carboxylic acid 3-chloro-2-fluoro-benzylamide]	28 nM	–
